Data reported in US9133157B2, “HIV protease inhibitors” (Merck Canada Inc., priority 2011, dated 2015).

Biological target: WT HIV-1 protease (Human immunodeficiency virus type 1 group M subtype B (isolate HXB2) (HIV-1), UniProt P04585)
Test: Assay for inhibition of microbial expressed HIV protease (Procedure A, peptide substrate, HPLC fluorescence detection)
Assay type: biochemical
Conditions: WT HIV-1 protease 10 pM, substrate 400 micromolar, pH 5.5, 30 min preincubation, 1 hour at 30° C.; read-out: Enzyme inhibition IC50
Summary of the method: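 E. coli-expressed enzyme preincubated 30 min at room temperature with compound in 50 mM sodium acetate pH 5.5, 100 mM NaCl, 0.1% BSA. Reaction ran 1 h at 30° C with 400 micromolar Val-Ser-Gln-Asn-(betanaphthyl)Ala-Pro-Ile-Val substrate and 10 picomolar protease. After phosphoric acid quench, product was measured by C18 HPLC with fluorescence (ex 270/em 330 nm).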

## COC(=O)N[C@H](C(=O)N[C@H](c1ccc([C@@H](CO)N(CCC(C)(C)C)S(=O)(=O)c2ccc(N)cc2F)s1)C(F)(F)F)C(c1ccccc1)c1ccccc1 [Example 98, N-[(1S)-1-{5-[(1R)-1-{[(4-amino-2-fluorophenyl)sulfonyl](3,3-dimethylbutyl)amino}-2-hydroxyethyl]thiophen-2-yl}-2,2,2-trifluoroethyl]-Nα-(methoxycarbonyl)-β-phenyl-L-phenylalaninamide]
  IC50: 0.44 nM

## COC(=O)N[C@H](C(=O)N[C@H](c1ccc([C@@H](CO)N(CCC(C)(C)C)S(=O)(=O)c2cn3ccnc3cn2)s1)C(F)(F)F)C(c1ccccc1)c1ccccc1 [Example 99, N-[(1S)-1-(5-{(1R)-1-[(3,3-dimethylbutyl)(imidazo[1,2-a]pyrazin-6-ylsulfonyl)amino]-2-hydroxyethyl}thiophen-2-yl)-2,2,2-trifluoroethyl]-Nα-(methoxycarbonyl)-β-phenyl-L-phenylalaninamide]
  IC50: 3.39 nM

## COC(=O)N[C@H](C(=O)N[C@H](c1ccc([C@@H](CO)N(CCC(C)(C)C)S(=O)(=O)c2ccc3ncsc3c2)s1)C(F)(F)F)C(c1ccccc1)c1ccccc1 [Example 100, N-[(1S)-1-(5-{(1R)-1-[(1,3-benzothiazol-6-ylsulfonyl)(3,3-dimethylbutyl)amino]-2-hydroxyethyl}thiophen-2-yl)-2,2,2-trifluoroethyl]-Nα-(methoxycarbonyl)-β-phenyl-L-phenylalaninamide]
  IC50: 0.9 nM

## COC(=O)N[C@H](C(=O)N[C@H](c1ccc([C@@H](CO)N(CCC(C)(C)C)S(=O)(=O)c2ccc3nn[nH]c3c2)s1)C(F)(F)F)C(c1ccccc1)c1ccccc1 [Example 101, N-[(1S)-1-(5-{(1R)-1-[(1H-benzotriazol-6-ylsulfonyl)(3,3-dimethylbutyl)amino]-2-hydroxyethyl}thiophen-2-yl)-2,2,2-trifluoroethyl]-Nα-(methoxycarbonyl)-β-phenyl-L-phenylalaninamide]
  IC50: 0.84 nM

## COC(=O)N[C@H](C(=O)N[C@H](c1ccc([C@@H](CO)N(CCC(C)(C)C)S(=O)(=O)c2ccc3cn[nH]c3c2)s1)C(F)(F)F)C(c1ccccc1)c1ccccc1 [Example 102, N-[(1S)-1-(5-{(1R)-1-[(3,3-dimethylbutyl)(1H-indazol-6-ylsulfonyl)amino]-2-hydroxyethyl}thiophen-2-yl)-2,2,2-trifluoroethyl]-Nα-(methoxycarbonyl)-β-phenyl-L-phenylalaninamide]
  IC50: 0.63 nM

## COC(=O)N[C@H](C(=O)N[C@H](c1ccc([C@@H](CO)N(CCC(C)(C)C)S(=O)(=O)c2ccc3[nH]ccc3c2)s1)C(F)(F)F)C(c1ccccc1)c1ccccc1 [Example 103, N-[(1S)-1-(5-{(1R)-1-[(3,3-dimethylbutyl)(1H-indol-5-ylsulfonyl)amino]-2-hydroxyethyl}thiophen-2-yl)-2,2,2-trifluoroethyl]-Nα-(methoxycarbonyl)-β-phenyl-L-phenylalaninamide]
  IC50: 6.14 nM

## COC(=O)N[C@H](C(=O)N[C@H](c1ccc([C@@H](CO)N(CCC(F)(F)F)S(=O)(=O)c2ccc3ncsc3c2)s1)C(F)(F)F)C(c1ccccc1)c1ccccc1 [Example 104, N-[(1S)-1-(5-{(1R)-1-[(1,3-benzothiazol-6-ylsulfonyl)(3,3,3-trifluoropropyl)amino]-2-hydroxyethyl}thiophen-2-yl)-2,2,2-trifluoroethyl]-Nα-(methoxycarbonyl)-β-phenyl-L-phenylalaninamide]
  IC50: 0.85 nM

## COC(=O)N[C@H](C(=O)N[C@H](c1ccc([C@@H](CO)N(CCCC(F)(F)F)S(=O)(=O)c2ccc3ncsc3c2)s1)C(F)(F)F)C(c1ccccc1)c1ccccc1 [Example 105, N-[(1S)-1-(5-[(1R)-1-[(1,3-benzothiazol-6-ylsulfonyl)(4,4,4-trifluorobutyl)amino]-2-hydroxyethyl}thiophen-2-yl)-2,2,2-trifluoroethyl]-Nα-(methoxycarbonyl)-β-phenyl-L-phenylalaninamide]
  IC50: 1.77 nM

## [2H]C([2H])([2H])C([2H])(N([C@H](CO)c1ccc([C@@H](NC(=O)[C@@H](NC(=O)OC)C(c2ccccc2)c2ccccc2)C(F)(F)F)s1)S(=O)(=O)c1ccc2ncsc2c1)C([2H])([2H])[2H] [Example 106, N-[(1S)-1-{5-[(1R)-1-{(1,3-benzothiazol-6-ylsulfonyl)[(2-^2H)propan-2-yl]amino}-2-hydroxyethyl]thiophen-2-yl}-2,2,2-trifluoroethyl]-Nα-(methoxycarbonyl)-β-phenyl-L-phenylalaninamide]
  IC50: 34.7 nM

## [2H]C([2H])([2H])C([2H])(N([C@H](CO)c1ccc([C@@H](NC(=O)[C@@H](NC(=O)OC)C(c2ccccc2)c2ccccc2)C(F)(F)F)s1)S(=O)(=O)c1ccc2[nH]ncc2c1)C([2H])([2H])[2H] [Example 107, Nα-(methoxycarbonyl)-β-phenyl-N-[(1S)-2,2,2-trifluoro-1-{5-[(1R)-2-hydroxy-1-1(1H-indazol-5-ylsulfonyl)[(2-^2H)propan-2-yl]amino}ethyl]thiophen-2-yl}ethyl-L-phenylalaninamide]
  IC50: 23.4 nM

## [2H]C([2H])([2H])C([2H])(N([C@H](CO)c1ccc([C@@H](NC(=O)[C@@H](NC(=O)OC)C(c2ccccc2)c2ccccc2)C(F)(F)F)s1)S(=O)(=O)c1ccc(N)cc1F)C([2H])([2H])[2H] [Example 108, N-[(1S)-1-{5-[(1R)-1-{[(4-amino-2-fluorophenyl)sulfonyl][(2-^2H)propan-2-yl]amino}-2-hydroxyethyl]thiophen-2-yl}-2,2,2-trifluoroethyl]-Nα-(methoxycarbonyl)-β-phenyl-L-phenylalaninamide]
  IC50: 9.4 nM

## COC(=O)N[C@H](C(=O)N[C@H](c1ccc([C@@H](CO)N(C(C)C)S(=O)(=O)c2ccc(C(N)=O)cc2)s1)C(F)(F)F)C(c1ccccc1)c1ccccc1 [Example 109, methyl [(1S)-2-{[(1)-1-(5-{(1R)-1-[{[4-(aminocarbonyl)phenyl]sulfonyl}(isopropyl)amino]-2-hydroxyethyl}-2-thienyl)-2,2,2-trifluoroethyl]amino}-1-(diphenylmethyl)-2-oxoethyl]carbamate]
  IC50: 31.5 nM

## COC(=O)N[C@H](C(=O)N[C@H](c1ccc([C@@H](CO)N(CCC(C)(C)C)S(=O)(=O)c2ccc(-n3ncnn3)cc2)s1)C(F)(F)F)C(c1ccccc1)c1ccccc1 [Example 110]
  IC50: 10.5 nM

## COC(=O)N[C@H](C(=O)N[C@H](c1ccc([C@@H](CO)N(CCC(C)(C)C)S(=O)(=O)c2ccc(-n3cnnn3)cc2)s1)C(F)(F)F)C(c1ccccc1)c1ccccc1 [Example 111, N-((1S)-1-{5-[(1R)-1-((3,3-dimethylbutyl){[4-(1H-tetrazol-1-yl)phenyl]sulfonyl}amino)-2-hydroxyethyl]-2-thienyl}-2,2,2-trifluoroethyl)-Nα-(methoxycarbonyl)-β-phenyl-L-phenylalaninamide]
  IC50: 19.3 nM

## COC(=O)N[C@H](C(=O)N[C@H](c1ccc([C@@H](CO)N(CCC(C)(C)C)S(=O)(=O)c2ccc(-n3nccn3)cc2)s1)C(F)(F)F)C(c1ccccc1)c1ccccc1 [Example 112]
  IC50: 73.5 nM

## COC(=O)N[C@H](C(=O)N[C@H](c1ccc([C@@H](CO)N(CCC(C)(C)C)S(=O)(=O)c2ccc(-n3ccnn3)cc2)s1)C(F)(F)F)C(c1ccccc1)c1ccccc1 [Example 113]
  IC50: 25.9 nM

## COC(=O)N[C@H](C(=O)N[C@H](c1ccc([C@@H](CO)N(CCC(C)(C)C)S(=O)(=O)c2ccc(-c3ccno3)cc2)s1)C(F)(F)F)C(c1ccccc1)c1ccccc1 [Example 114, N-{(1S)-1-[5-((1R)-1-{(3,3-dimethylbutyl)[(4-isoxazol-5-ylphenyl)sulfonyl]amino}-2-hydroxyethyl)-2-thienyl]-2,2,2-trifluoroethyl}-Nα-(methoxycarbonyl)-β-phenyl-L-phenylalaninamide]
  IC50: 0.77 nM

## COC(=O)N[C@H](C(=O)N[C@H](c1ccc([C@@H](CO)N(CCC(C)(C)C)S(=O)(=O)c2ccc(N)c(Cl)c2)s1)C(F)(F)F)C(c1ccccc1)c1ccccc1 [Example 116, N-[(1S)-1-(5-{(1R)-1-[[(4-amino-3-chlorophenyl)sulfonyl](3,3-dimethylbutyl)amino]-2-hydroxyethyl}-2-thienyl)-2,2,2-trifluoroethyl]-Nα-(methoxycarbonyl)-β-phenyl-L-phenylalaninamide]
  IC50: 3.54 nM

## COC(=O)N[C@H](C(=O)N[C@H](c1ccc([C@@H](CO)N(CCC(C)(C)C)S(=O)(=O)c2ccc(N)cc2Cl)s1)C(F)(F)F)C(c1ccccc1)c1ccccc1 [Example 117, N-[(1S)-1-(5-{(1R)-1-[[(4-amino-2-chlorophenyl)sulfonyl](3,3-dimethylbutyl)amino]-2-hydroxyethyl}-2-thienyl)-2,2,2-trifluoroethyl]-Nα-(methoxycarbonyl)-β-phenyl-L-phenylalaninamide]
  IC50: 0.47 nM

## COC(=O)N[C@H](C(=O)N[C@H](c1ccc([C@@H](CO)N(CCC(C)(C)C)S(=O)(=O)c2ccc3ncnn3c2)s1)C(F)(F)F)C(c1ccccc1)c1ccccc1 [Example 118, N-[(1S)-1-(5-{(1R)-1-[(3,3-dimethylbutyl)([1,2,4]triazolo[1,5-a]pyridin-6-ylsulfonyl)amino]-2-hydroxyethyl}thiophen-2-yl)-2,2,2-trifluoroethyl]-Nalpha-(methoxycarbonyl)-beta-phenyl-L-phenylalaninamide]
  IC50: 2.43 nM

## COC(=O)N[C@H](C(=O)N[C@H](c1ccc([C@@H](CO)N(CCC(C)(C)C)S(=O)(=O)c2cn3cc(Cl)nc3cn2)s1)C(F)(F)F)C(c1ccccc1)c1ccccc1 [Example 119, N-[(1S)-1-{5-[(1R)-1-{[(2-chloroimidazo[1,2-a]pyrazin-6-yl)sulfonyl](3,3-dimethylbutyl)amino}-2-hydroxyethyl]thiophen-2-yl}-2,2,2-trifluoroethyl]-Nα-(methoxycarbonyl)-β-phenyl-L-phenylalaninamide]
  IC50: 13.9 nM
